Tests used:
[1] = tested on: HT-1080 cells expressing IDH1R132C; assay: 2-HG production inhibitory activity using HT1080 cell; assay type: cell-based, human; conditions: Homo sapiens, HT-1080; 2-HG production, HT1080 cells; read-out: Test Example 3 IC50
Protocol: Then, 100 μL of growth medium B was added to each well, further 25 μL of a solution of each compound diluted to a predetermined concentration with growth medium B was added to each well, and the cells were incubated at 37° C. for 2 days under 5% CO2. […] Then, 150 μL of ultrapure water was further added to each well, and the mixture was stirred by pipetting and stored at −20° C.
The preserved solutions were thawed at room temperature.

IDH1R132C = IDH1R132C (Homo sapiens (Human), UniProt O75874, R132C); assay: Inhibitory activity against IDH1R132C enzyme (NADPH detection, WST-8); assay type: biochemical; conditions: 10 nM, residual NADPH detected with WST-8, read-out: Test Example 1 IDH1 R132C IC50
Chain of IDH1R132C (O75874 whole entry R132C): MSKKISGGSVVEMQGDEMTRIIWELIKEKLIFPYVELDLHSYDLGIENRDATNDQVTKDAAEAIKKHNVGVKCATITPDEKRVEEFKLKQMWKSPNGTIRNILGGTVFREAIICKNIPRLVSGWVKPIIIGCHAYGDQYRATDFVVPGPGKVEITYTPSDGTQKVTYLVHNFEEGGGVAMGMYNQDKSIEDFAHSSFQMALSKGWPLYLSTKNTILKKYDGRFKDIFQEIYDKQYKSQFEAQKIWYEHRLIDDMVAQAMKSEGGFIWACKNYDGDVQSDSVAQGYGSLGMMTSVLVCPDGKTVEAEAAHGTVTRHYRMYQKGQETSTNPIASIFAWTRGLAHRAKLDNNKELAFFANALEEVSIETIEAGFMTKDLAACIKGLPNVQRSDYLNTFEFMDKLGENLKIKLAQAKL

[2] = tested on: HT1080 xenografted mice (IDH1R132C); assay: 2-HG production inhibitory activity using HT1080 xenografted mice; assay type: in vivo, mouse; conditions: Mus musculus, HT-1080, po, 6 h, 2-HG production, HT1080 xenografted mice; read-out: Test Example 5 Ratio (%)
Method in brief: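 Mice bearing HT1080 tumors received 75 mg/kg compound by oral gavage twice a day, three doses in total, at 10 mL/kg; vehicle-dosed mice were negative controls. Tumors were collected 6 h after the final dose, frozen, homogenized in methanol and centrifuged, and 2-HG was measured in the extracts.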

COC1(c2onc(-c3c(Cl)cc(Cl)cc3Cl)c2C(=O)n2ccc3c(/C=C/C(=O)O)cccc32)CCC1 [Example 74, (2E)-3-(1-{[5-(1-Methoxycyclobutyl)-3-(2,4,6-trichlorophenyl)-1,2-oxazol-4-yl]carbonyl}-1H-indol-4-yl)prop-2-enoic acid]
IC50 [1]: 0.118 µM | IC50 (IDH1R132C): 0.175 µM | response vs control in vivo at 75 mg/kg [2]: 20%

COC1(c2onc(-c3c(Cl)cc(Cl)cc3Cl)c2C(=O)n2cc(C)c3c(/C=C/C(=O)O)cccc32)CCC1 [Example 79, (2E)-3-(1-{[5-(1-Methoxycyclobutyl)-3-(2,4,6-trichlorophenyl)-1,2-oxazol-4-yl]carbonyl}-3-methyl-1H-indol-4-yl)prop-2-enoic acid]
IC50 [1]: 0.035 µM | IC50 (IDH1R132C): 0.161 µM | response vs control in vivo at 75 mg/kg [2]: 15%

Cc1cn(C(=O)c2c(-c3c(Cl)cc(Cl)cc3Cl)noc2C2(N(C)C)CCC2)c2cccc(/C=C/C(=O)O)c12 [Example 81, (2E)-3-(1-{[5-[1-(Dimethylamino)cyclobutyl]-3-(2,4,6-trichlorophenyl)-1,2-oxazol-4-yl]carbonyl}-3-methyl-1H-indol-4-yl)prop-2-enoic acid]
IC50 [1]: 0.031 µM | IC50 (IDH1R132C): 0.163 µM | response vs control in vivo at 75 mg/kg [2]: 15%

CNC1(c2onc(-c3c(Cl)cc(Cl)cc3Cl)c2C(=O)n2cc(C)c3c(/C=C/C(=O)O)cccc32)CCC1 [Example 83, (2E)-3-(3-Methyl-1-{[5-[1-(methylamino)cyclobutyl]-3-(2,4,6-trichlorophenyl)-1,2-oxazol-4-yl]carbonyl}-1H-indol-4-yl)prop-2-enoic acid]
IC50 [1]: 0.033 µM | IC50 (IDH1R132C): 0.087 µM | response vs control in vivo at 75 mg/kg [2]: 23%

C=CC(=O)N(C)C1(c2onc(-c3c(Cl)cc(Cl)cc3Cl)c2C(=O)n2cc(C)c3c(/C=C/C(=O)O)cccc32)CCC1 [Example 87, (2E)-3-(1-{[5-{1-[Acryloyl(methyl)amino]cyclobutyl}-3-(2,4,6-trichlorophenyl)-1,2-oxazol-4-yl]carbonyl}-3-methyl-1H-indol-4-yl)prop-2-enoic acid]
IC50 [1]: 0.071 µM | IC50 (IDH1R132C): 0.145 µM | response vs control in vivo at 75 mg/kg [2]: 68%

C=CC(=O)N1CCC(c2onc(-c3c(Cl)cc(Cl)cc3Cl)c2C(=O)n2cc3c4c(cccc42)/C(=C/C(=O)O)CC3)CC1 [Example 94, (2E)-[1-{[5-(1-Acryloylpiperidin-4-yl)-3-(2,4,6-trichlorophenyl)-1,2-oxazol-4-yl]carbonyl}-3,4-dihydrobenzo[cd]indol-5(1H)-ylidene]ethanoic acid]
IC50 [1]: 0.003 µM | IC50 (IDH1R132C): 0.159 µM | response vs control in vivo at 75 mg/kg [2]: 1%

C=CC(=O)N1CC(c2onc(-c3c(Cl)cc(Cl)cc3Cl)c2C(=O)n2ccc3c(/C=C/C(=O)O)cccc32)C1 [Example 95]
IC50 [1]: 0.089 µM | IC50 (IDH1R132C): 0.067 µM | response vs control in vivo at 75 mg/kg [2]: 44%

C=CC(=O)N1CCC(c2onc(-c3c(Cl)cc(Cl)cc3Cl)c2C(=O)n2ccc3c(/C=C/C(=O)O)cccc32)CC1 [Example 99]
IC50 [1]: 0.034 µM | IC50 (IDH1R132C): 0.272 µM | response vs control in vivo at 75 mg/kg [2]: 15%

C#CC(=O)N1CCC(c2onc(-c3c(Cl)cc(Cl)cc3Cl)c2C(=O)n2ccc3c(/C=C/C(=O)O)cccc32)CC1 [Example 100]
IC50 [1]: 0.028 µM | IC50 (IDH1R132C): 0.189 µM | response vs control in vivo at 75 mg/kg [2]: 75%

C=CS(=O)(=O)N1CCC(c2onc(-c3c(Cl)cc(Cl)cc3Cl)c2C(=O)n2ccc3c(/C=C/C(=O)O)cccc32)CC1 [Example 103]
IC50 [1]: 0.506 µM | IC50 (IDH1R132C): 0.114 µM | response vs control in vivo at 75 mg/kg [2]: 90%

C=CC(=O)N1CCC(c2onc(-c3c(Cl)cc(Cl)cc3Cl)c2C(=O)n2cc(C)c3c(/C=C/C(=O)O)cccc32)CC1 [Example 104]
IC50 [1]: 0.007 µM | IC50 (IDH1R132C): 0.093 µM | response vs control in vivo at 75 mg/kg [2]: 8%

C=CC(=O)N1CCC(c2onc(-c3c(Cl)cc(Cl)cc3Cl)c2C(=O)n2ccc3c(C4CC4C(=O)O)cccc32)CC1 (stereo not drawn) [Example 105]
IC50 [1]: 0.032 µM | IC50 (IDH1R132C): 0.567 µM | response vs control in vivo at 75 mg/kg [2]: 27%

C=CC(=O)N1CCC(c2onc(-c3ccc(Cl)cc3Cl)c2C(=O)n2cc(C)c3c(/C=C/C(=O)O)cccc32)CC1 [Example 106]
IC50 [1]: 0.023 µM | IC50 (IDH1R132C): 0.149 µM | response vs control in vivo at 75 mg/kg [2]: 12%

C=CC(=O)N1CCC(c2onc(-c3c(Cl)cccc3Cl)c2C(=O)n2cc(C)c3c(/C=C/C(=O)O)cccc32)CC1 [Example 108]
IC50 [1]: 0.038 µM | IC50 (IDH1R132C): 0.149 µM | response vs control in vivo at 75 mg/kg [2]: 58%

C=CC(=O)N1CCC(c2onc(-c3c(C)cc(C)cc3C)c2C(=O)n2ccc3c(/C=C/C(=O)O)cccc32)CC1 [Example 109]
IC50 [1]: 0.045 µM | IC50 (IDH1R132C): 0.243 µM | response vs control in vivo at 75 mg/kg [2]: 23%

C=CC(=O)N1CCC(c2onc(-c3c(C)cc(Cl)cc3C)c2C(=O)n2ccc3c(/C=C/C(=O)O)cccc32)CC1 [Example 110]
IC50 [1]: 0.048 µM | IC50 (IDH1R132C): 0.316 µM | response vs control in vivo at 75 mg/kg [2]: 52%

C=CC(=O)N1CCC(c2onc(-c3c(Cl)cc(F)cc3Cl)c2C(=O)n2cc(C)c3c(/C=C/C(=O)O)cccc32)CC1 [Example 112]
IC50 [1]: 0.012 µM | IC50 (IDH1R132C): 0.115 µM | response vs control in vivo at 75 mg/kg [2]: 15%

C=CC(=O)N1CCC(C)(c2onc(-c3c(Cl)cc(Cl)cc3Cl)c2C(=O)n2cc(C)c3c(/C=C/C(=O)O)cccc32)CC1 [Example 113]
IC50 [1]: 0.002 µM | IC50 (IDH1R132C): 0.104 µM | response vs control in vivo at 75 mg/kg [2]: 13%

C=CC(=O)N1CCC(c2onc(-c3c(C)cc(C)cc3C)c2C(=O)n2cc(C)c3c(/C=C/C(=O)O)cccc32)CC1 [Example 114]
IC50 [1]: 0.003 µM | IC50 (IDH1R132C): 0.081 µM | response vs control in vivo at 75 mg/kg [2]: 12%

C=CC(=O)N1CCC(c2onc(-c3c(Cl)cc(Cl)cc3Cl)c2C(=O)n2cc(C)c3c(CCC(=O)O)cccc32)CC1 [Example 115]
IC50 [1]: 0.032 µM | IC50 (IDH1R132C): 0.301 µM | response vs control in vivo at 75 mg/kg [2]: 12%

C=CC(=O)N1CCC(c2onc(-c3c(Cl)cc(Cl)cc3Cl)c2C(=O)n2ccc3c(/C=C(\C)C(=O)O)cccc32)CC1 [Example 116]
IC50 [1]: 0.042 µM | IC50 (IDH1R132C): 0.471 µM | response vs control in vivo at 75 mg/kg [2]: 57%

C=CC(=O)N1CCC(OC)(c2onc(-c3c(Cl)cc(Cl)cc3Cl)c2C(=O)n2cc(C)c3c(/C=C/C(=O)O)cccc32)CC1 [Example 117]
IC50 [1]: 0.002 µM | IC50 (IDH1R132C): 0.117 µM | response vs control in vivo at 75 mg/kg [2]: 10%

C=CC(=O)N1CCC(c2onc(-c3c(Cl)cc(Cl)cc3Cl)c2C(=O)n2ncc3c(/C=C/C(=O)O)cccc32)CC1 [Example 118]
IC50 [1]: 0.097 µM | IC50 (IDH1R132C): 0.625 µM | response vs control in vivo at 75 mg/kg [2]: 87%

C/C=C/C(=O)N1CCC(c2onc(-c3c(Cl)cc(Cl)cc3Cl)c2C(=O)n2cc(C)c3c(/C=C/C(=O)O)cccc32)CC1 [Example 119]
IC50 [1]: 0.03 µM | IC50 (IDH1R132C): 0.19 µM | response vs control in vivo at 75 mg/kg [2]: 12%

C=CC(=O)N1CCC(COC)(c2onc(-c3c(Cl)cc(Cl)cc3Cl)c2C(=O)n2ccc3c(/C=C/C(=O)O)cccc32)CC1 [Example 120]
IC50 [1]: 0.051 µM | IC50 (IDH1R132C): 0.357 µM | response vs control in vivo at 75 mg/kg [2]: 31%

C=CC(=O)N1CCC(c2onc(-c3cc(F)c(Cl)cc3Cl)c2C(=O)n2cc(C)c3c(/C=C/C(=O)O)cccc32)CC1 [Example 121]
IC50 [1]: 0.008 µM | IC50 (IDH1R132C): 0.11 µM | response vs control in vivo at 75 mg/kg [2]: 8%

C=CC(=O)N1CCC(c2onc(-c3c(C)cc(Cl)cc3C)c2C(=O)n2cc(C)c3c(/C=C/C(=O)O)cccc32)CC1 [Example 122]
IC50 [1]: 0.006 µM | IC50 (IDH1R132C): 0.094 µM | response vs control in vivo at 75 mg/kg [2]: 29%

C=CC(=O)N1CCC(c2onc(-c3c(Cl)cc(Cl)cc3Cl)c2C(=O)n2cc3c4c(cccc42)C(CC(=O)O)CC3)CC1 (stereo not drawn) [Example 125]
IC50 [1]: 0.078 µM | IC50 (IDH1R132C): 0.454 µM | response vs control in vivo at 75 mg/kg [2]: 72%

C=CC(=O)N1CCC(c2onc(-c3cc(F)c(Cl)cc3Cl)c2C(=O)n2cc3c4c(cccc42)/C(=C/C(=O)O)CC3)CC1 [Example 128]
IC50 [1]: 0.003 µM | IC50 (IDH1R132C): 0.091 µM | response vs control in vivo at 75 mg/kg [2]: 1%

C=CC(=O)N1CCC(c2onc(-c3ccc(Cl)c(F)c3Cl)c2C(=O)n2cc3c4c(cccc42)/C(=C/C(=O)O)CC3)CC1 [Example 130, (2E)-[1-{[5-(1-Acryloylpiperidin-4-yl)-3-(2,4-dichloro-3-fluorophenyl)-1,2-oxazol-4-yl]carbonyl}-3,4-dihydrobenzo[cd]indol-5(1H)-ylidene]ethanoic acid]
IC50 [1]: 0.014 µM | IC50 (IDH1R132C): 0.143 µM | response vs control in vivo at 75 mg/kg [2]: 5%

C=CC(=O)N1CCC(c2onc(-c3ccc(Cl)cc3Cl)c2C(=O)n2cc3c4c(cccc42)/C(=C/C(=O)O)CC3)CC1 [Example 131, (2E)-[1-{[5-(1-Acryloylpiperidin-4-yl)-3-(2,4-dichlorophenyl)-1,2-oxazol-4-yl]carbonyl}-3,4-dihydrobenzo[cd]indol-5(1H)-ylidene]ethanoic acid]
IC50 [1]: 0.004 µM | IC50 (IDH1R132C): 0.133 µM | response vs control in vivo at 75 mg/kg [2]: 3%

C=CC(=O)N1CCN(c2onc(-c3c(Cl)cccc3Cl)c2C(=O)n2ccc3c(/C=C/C(=O)O)cccc32)[C@H](C)C1 [Example 141, (2E)-3-[1-({5-[(2R)-4-Acryloyl-2-methylpiperazin-1-yl]-3-(2,6-dichlorophenyl)-1,2-oxazol-4-yl}carbonyl)-1H-indol-4-yl]prop-2-enoic acid]
IC50 [1]: 0.19 µM | IC50 (IDH1R132C): 0.137 µM | response vs control in vivo at 75 mg/kg [2]: 36%

From patent publication US10040791B2, “Isoxazole derivative as mutant isocitrate dehydrogenase 1 inhibitor” (Daiichi Sankyo Company, Limited, priority 2014, dated 2018)
